Patent US20260000675A1, “COMBINATION THERAPY FOR PREVENTING OR TREATING OBESITY” (LG CHEM, LTD., priority 2022, published 2026)

Experiments:
Type in all cases: in vivo
[1] = test system: diet-induced obesity (DIO) mouse model; assay: Combination study with PF-06882961 (danuglipron) in DIO mice: food intake, body weight, body fat mass, OGTT
Description: In a diet-induced obesity (DIO) mouse model where obesity was induced using a high-fat diet, changes in food intake and body weight were measured over 4 weeks of repeated co-administration of PF-06882961 (danuglipron), which is an oral GLP-1 receptor agonist, and the test compound, which is an MC4R agonist. Food intake and body weight were measured once daily prior to the administration of the test substances, and changes in body weight relative to weight (D1) prior to the administration of the test substances were calculated, with the results presented in FIGS. 5 and 6, respectively. Further, on the 28th day after the administration of the test substances, body fat mass and an oral glucose tolerance test (OGTT) were measured, with the results shown in FIGS. 7 and 8, respectively. Body fat mass was measured using a ^1H-Mini-spec system (LF-9011, Bruker Optics GmbH, Germany) and blood glucose was measured using GM9 (Analox Instruments Ltd., UK) with blood samples collected from the tail vein.

[2] = test system: diet-induced obesity (DIO) mouse model; assay: Reduction in liver/fat weight on repeated co-administration with semaglutide in DIO mice; conditions: after 3 weeks, FIG. 3
Description: In a diet-induced obesity (DIO) mouse model where obesity was induced using a high-fat diet, the effect of reduction in liver and fat weights was measured after 3 weeks of repeated co-administration of semaglutide (a GLP-1 receptor agonist, trade name: Ozempic) and the test compound, which is an MC4R agonist, with the results shown in FIG. 3.

[3] = test system: diet-induced obesity (DIO) mouse model; assay: Comparative example: weight loss on co-administration of semaglutide with test compound or setmelanotide in DIO mice; conditions: repeated co-administration with semaglutide for 18 days, test compound 15 mg/kg/day, comparative compound 3 mg/kg/day, FIG. 4
From the text: In a diet-induced obesity (DIO) mouse model where obesity was induced using a high-fat diet, the weight loss effect was compared after 18 days of repeated co-administration of semaglutide (a GLP-1 receptor agonist, trade name: Ozempic) with either the test compound, which is an MC4R agonist, or setmelanotide (RM-493), which is a peptide MC4R agonist (hereinafter referred to as ‘comparative compound’). Dosages of the test compound and the comparative compound were selected based on the efficacious doses observed in single administration studies (test compound: 15 mg/kg/day, comparative compound: 3 mg/kg/day). Body weight measurements were taken once daily prior to the administration of the test substances, and changes in body weight after 18 days relative to weight (D1) prior to the administration of the test substances were calculated and presented in FIG. 4.

[4] = test system: diet-induced obesity (DIO) mouse model; assay: Weight loss effect on repeated co-administration with semaglutide in DIO mice; conditions: repeated co-administration with semaglutide over 18 days, versus single administration, FIGS. 1 and 2
Description: In a diet-induced obesity (DIO) mouse model where obesity was induced using a high-fat diet, the weight loss effect was measured over 18 days following repeated co-administration of semaglutide (a GLP-1 receptor agonist, trade name: Ozempic) and an MC4R agonist, N-((3S,5S)-1-((3S,4R)-1-(tert-butyl)-4-(4-chlorophenyl)pyrrolidine-3-carbonyl)-5-(morpholin-4-carbonyl)pyrrolidin-3-yl)-N-((1 S,4R)-4-methylcyclohexyl)isobutyramide hydrochloride obtained in Preparation Example (hereinafter referred to as ‘test compound’). Body weight measurements were taken once daily prior to the administration of the test substances, and changes in body weight compared to weight (D1) prior to the administration of the test substances were calculated and presented in FIGS. 1 and 2. By comparing the weight loss effect in the co-administration group to that in the single administration group, the effect of co-administration of a GLP-1 receptor agonist and the test compound was evaluated.

CC(C)C(=O)N([C@H]1C[C@@H](C(=O)N2CCOCC2)N(C(=O)[C@@H]2CN(C(C)(C)C)C[C@H]2c2ccc(Cl)cc2)C1)[C@H]1CC[C@@H](C)CC1.Cl [test compound, N-((3S,5S)-1-((3S,4R)-1-(tert-butyl)-4-(4-chlorophenyl)pyrrolidine-3-carbonyl)-5-(morpholine-4-carbonyl)pyrrolidin-3-yl)-N-((1s,4R)-4-methylcyclohexyl)isobutyramide hydrochloride]
reduction in body fat mass ([1]; co-administration with PF-06882961, day 28, 1H-Mini-spec, versus single administration, FIG. 7): much greater reduction in body fat mass | improvement in glucose tolerance (OGTT) ([1]; co-administration with PF-06882961, day 28, oral glucose tolerance test, versus single administration, FIG. 8): improvement in glucose tolerance | weight loss effect (change in body weight relative to D1) ([1]; repeated co-administration with PF-06882961 over 4 weeks (28 days), versus single administrations, FIG. 6): synergistic weight loss effect | reduction in food intake ([1]; repeated co-administration with PF-06882961 over 28 days, versus single administrations, FIG. 5): significant reduction in food intake | effect of reduction in fat weight [2]: synergistic effect in reducing liver and fat weights | effect of reduction in liver weight [2]: synergistic effect in reducing liver and fat weights | weight loss effect (change in body weight after 18 days relative to D1) [3]: significant synergistic weight loss effect | weight loss effect (change in body weight relative to D1) [4]: synergistic weight loss effect
